Data reported in patent publication US11180497B2 (ANGEX PHARMACEUTICAL, INC., priority 2017, dated 2021).

Target: T1, Human IDO (Homo sapiens, UniProt P14902)
T1 construct: High control is Hela cells with IFNγ treatment; endogenous in cells; host or cells: HeLa cells treated with 25 ng/ml IFNγ
Assay: HeLa cell IDO assay (IFNγ-treated cells, N-formylkynurenine by RapidFire/MS/MS)
Format: cell-based
Details: 25 ng/ml IFNγ, 200 μM Trp, 48 hours, class symbol

T1 sequence (P14902 whole entry): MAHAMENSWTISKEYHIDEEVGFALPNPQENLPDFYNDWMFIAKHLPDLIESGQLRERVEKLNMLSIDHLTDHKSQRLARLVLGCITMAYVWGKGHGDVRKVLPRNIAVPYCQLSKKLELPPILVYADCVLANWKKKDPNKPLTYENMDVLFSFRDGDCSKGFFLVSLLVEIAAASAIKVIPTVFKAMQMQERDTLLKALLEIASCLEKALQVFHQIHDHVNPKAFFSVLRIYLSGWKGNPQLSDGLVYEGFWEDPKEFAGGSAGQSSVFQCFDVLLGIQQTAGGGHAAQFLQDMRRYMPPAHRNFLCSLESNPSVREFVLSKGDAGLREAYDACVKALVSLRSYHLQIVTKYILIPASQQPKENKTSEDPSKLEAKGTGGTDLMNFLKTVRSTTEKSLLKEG

IC50	Structure (SMILES)
> 1000 nM	O=C(Nc1ccccc1Cl)[C@H]1C[C@]12CC[C@H](c1ccnc3ccc(F)cc31)CC2 [Compound 2-2]
100 to 1000 nM	O=C(Nc1ccc(Cl)cn1)[C@H]1C[C@]12CC[C@H](c1ccnc3ccc(F)cc31)CC2 [Compound 2-3]
< 100 nM	O=C(Nc1ccc(Cl)cc1)C1CC12CCC(c1ccnc3ccncc13)CC2 (single isomer, unassigned) [Compound 7-6, N-(4-chlorophenyl)-6-(1,6-naphthyridin-4-yl)spiro[2.5]octane-1-carboxamide]
< 100 nM	N#Cc1ccc(NC(=O)[C@H]2C[C@]23CC[C@H](c2ccnc4ccc(F)cc42)CC3)cc1 (single isomer, unassigned) [Compound 4-6]
> 1000 nM	O=C(Nc1ccc(Cl)cc1)C1CCC12CCC(c1ccnc3ccc(F)cc13)CC2 (stereo not shown) [Compound 15-3, N-(4-chlorophenyl)-7-(6-fluoroquinolin-4-yl)spiro[3.5]nonane-1-carboxamide]
< 100 nM	CC1(C(=O)Nc2ccc(Cl)cc2)CC12CCC(c1ccnc3ccc(F)cc13)CC2 (single isomer, unassigned) [Compound 11-5, N-(4-chlorophenyl)-6-(6-fluoroquinolin-4-yl)-1-methylspiro[2.5]octane-1-carboxamide]
100 to 1000 nM	COc1ccc2nccc([C@H]3CC[C@@]4(CC3)C[C@@H]4C(=O)Nc3ccc(Cl)cc3)c2c1 [Compound 8-4D]
> 1000 nM	O=C(Nc1ccc(Cl)cc1)C1CC2(CCC(c3ccnc4ccncc34)CC2)C1 (single isomer, unassigned) [Compound 20-9, N-(4-chlorophenyl)-7-(1,6-naphthyridin-4-yl)spiro[3.5]nonane-2-carboxamide]
< 100 nM	CC1(C(=O)Nc2ccc(Cl)cc2)CC12CCC(c1ccnc3ccc(F)cc13)CC2 (single isomer, unassigned) [Compound 11-6, N-(4-chlorophenyl)-6-(6-fluoroquinolin-4-yl)-1-methylspiro[2.5]octane-1-carboxamide]
> 1000 nM	O=C(Nc1ccc(Cl)cc1)C1CC12CCC(c1ccnc3ccncc13)CC2 (single isomer, unassigned) [Compound 7-7, N-(4-chlorophenyl)-6-(1,6-naphthyridin-4-yl)spiro[2.5]octane-1-carboxamide]
< 100 nM	O=C(Nc1ccc(I)cc1)[C@H]1C[C@]12CC[C@H](c1ccnc3ccc(F)cc31)CC2 (single isomer, unassigned) [Compound 4-5]
< 100 nM	COc1cc2nccc([C@H]3CC[C@@]4(CC3)C[C@@H]4C(=O)Nc3ccc(Cl)cc3)c2cn1 [Compound 8-4F]
100 to 1000 nM	N#Cc1ccc(NC(=O)[C@H]2C[C@]23CC[C@H](c2ccnc4ccc(F)cc42)CC3)nc1 [Compound 3-3]
> 1000 nM	O=C(Nc1ccc(C(F)(F)F)cn1)[C@H]1C[C@]12CC[C@H](c1ccnc3ccc(F)cc31)CC2 (stereo in doubt) [Compound 3-2, 6-(6-fluoroquinolin-4-yl)-N-(5-(trifluoromethyl)pyridin-2-yl)spiro[2.5]octane-1-carboxamide]
< 100 nM	O=C(Nc1ccc(Cl)cc1F)[C@H]1C[C@]12CC[C@H](c1ccnc3ccc(F)cc31)CC2 [Compound 2-5]
100 to 1000 nM	O=C(Nc1ccc(C2CC2)cc1)[C@H]1C[C@]12CC[C@H](c1ccnc3ccc(F)cc31)CC2 [Compound 1-13]
< 100 nM	O=C(Nc1ccc(Cl)nc1)[C@H]1C[C@]12CC[C@H](c1ccnc3ccc(F)cc31)CC2 [Compound 1-23]
< 100 nM	O=C(Nc1ccc(Cl)cc1)C1CC12CCC(c1ccnc3ccc(F)cc13)CC2 (stereo not shown) [Compound 1-9, N-(4-chlorophenyl)-6-(6-fluoroquinolin-4-yl)spiro[2.5]octane-1-carboxamide]
< 100 nM	O=C(Nc1ccc(Cl)cc1)C1CC2(CCC(c3ccnc4ccncc34)CC2)C1 (single isomer, unassigned) [Compound 20-8, N-(4-chlorophenyl)-7-(1,6-naphthyridin-4-yl)spiro[3.5]nonane-2-carboxamide]
< 100 nM	O=C(Nc1ccc(Cl)cc1)[C@H]1C[C@]12CC[C@H](c1ccnc3ccc(Cl)cc31)CC2 [Compound 8-4A]
< 100 nM	O=C(Nc1ccc(F)cn1)[C@H]1C[C@]12CC[C@H](c1ccnc3ccc(F)cc31)CC2 [Compound 2-6]
< 100 nM	O=C(Nc1ccc(Br)cc1F)[C@H]1C[C@]12CC[C@H](c1ccnc3ccc(F)cc31)CC2 (single isomer, unassigned) [Compound 4-8]
